Measured values reported in patent publication US20070026080A1, “Manufacturing process for tigecycline” (Wyeth, priority 2005, published 2007).

Test: Strength and degradation profile of tigecycline 20 mg/mL bulk solutions by reversed phase HPLC (effect of temperature, time, pH, dissolved oxygen; Runs A to O)
Format: physicochemical
Description: The contents of the sample vials are dissolved in diluent. The sample solution is diluted, if necessary, and chromatographed on a reversed phase column using gradient elution. Impurities are determined by comparing the impurity peak areas in the sample preparation chromatogram to the average area of tigecycline peaks in the standard preparation chromatograms obtained concomitantly.
Chromatographic Column—Length about 15 cm, inside diameter about 4.6 mm, packed with Inertsil ODS2, 5 μm size particles or equivalent.
Detector—Ultraviolet spectrophotometric detector capable of operating at 248 nm with a sensitivity of about 0.5 absorbance units full scale.
The results of additional studies to investigate the effect of processing parameters such as temperature, time, and dissolved oxygen content on the purity profile of tigecycline solutions using the following materials, methods and procedures are presented in Tables A to O.
The experiments were run in plastic glove bags under normal laboratory light conditions. Plastic glove boxes will be used to control the headspace of the beakers. The batch size was 200 mL. • 1. Prepare the glove bag with a mixture of nitrogen and air to achieve an oxygen level in the solution as per the design. • 2. Place the jacketed beaker on the magnetic stirrer. Connect it to the cooler. Set the cooler to the desired set point. • 3. Add 200 mL of SWFI in to the beaker. Allow equilibrating. Measure the temperature and oxygen content. When it reaches the desired condition, add accurately weighed API and mix until dissolved. If necessary use spatula to aid dissolution. For pH adjustments, use 4 mL of either 0.1N NaOH or 0.1N HCl and 196 mL of WFI for manufacture. • 4. After complete dissolution, Transfer about 5.5 mL of Solution in vials and stopper them. These vials will be stoppered at the appropriate headspace conditions. Place the vials in appropriate temperature conditions. • 5. Sample the vials at 1, 4, 8, 10, 12 and 24 hours. Send the samples for analysis. Freeze the 10, 12 and 24 samples at −20° C. for analysis the following day. • 6. Measure pH and record color of the solution at each time point. Results
The 1-hour samples were taken directly from the beakers. Samples for later time points were collected in stoppered vials processed in the atmosphere of the bag in order to simulate the headspace conditions then placed in water baths or refrigerator to maintain there respective temperature conditions. This was done to maintain safety in the lab. Disposable plastic glove bags require constant flow of a mixture of nitrogen and air to maintain headspace oxygen level that will result in the desired dissolved oxygen (DO) content in the sample. The pH of samples was measured at each sample points.
Strength and degradation profile was analyzed by HPLC as described above. […] Degradation was slightly higher at higher temperature condition.

[1] = Run #N, 8° C., pH 8.2, Oxygen = 0.1 mg/L, 4 Hrs
[2] = Run #N, 8° C., pH 8.2, Oxygen = 0.1 mg/L, 8 Hrs
[3] = Run #N, 8° C., pH 8.2, Oxygen = 0.1 mg/L, 12 Hrs
[4] = Run #N, 8° C., pH 8.2, Oxygen = 0.1 mg/L, 24 Hrs
[5] = Run #O, 20 mg/mL, 5° C., Oxygen = 0.1 mg/mL, hours 1,4,8,12,24 at r7-r11, time 1 h
[6] = Run #O, 20 mg/mL, 5° C., Oxygen = 0.1 mg/mL, hours 1,4,8,12,24 at r7-r11, time 4 h
[7] = Run #O, 20 mg/mL, 5° C., Oxygen = 0.1 mg/mL, hours 1,4,8,12,24 at r7-r11, time 8 h
[8] = Run #O, 20 mg/mL, 5° C., Oxygen = 0.1 mg/mL, hours 1,4,8,12,24 at r7-r11, time 12 h
[9] = Run #O, 20 mg/mL, 5° C., Oxygen = 0.1 mg/mL, hours 1,4,8,12,24 at r7-r11, time 24 h

**Q.** Which results are given for CN(C)c1cc(NC(=O)CNC(C)(C)C)c(O)c2c1C[C@H]1C[C@H]3[C@H](N(C)C)C(O)=C(C(N)=O)C(=O)[C@@]3(O)C(O)=C1C2=O [Tigecycline]?
**A.** RRT 0.78 MW = 557 [1]: BRL (BRL means below reporting limit (meaning less than 0.05% of tigecycline peak)); RRT 1.12 [1]: BRL (BRL means below reporting limit (meaning less than 0.05% of tigecycline peak)); RRT 1.45 [1]: 0.07%; RRT 1.58 [1]: BRL (BRL means below reporting limit (meaning less than 0.05% of tigecycline peak)); RRT 1.64 Mino [1]: 0.10%; RRT 1.67 MW = 556 [1]: BRL (BRL means below reporting limit (meaning less than 0.05% of tigecycline peak)); RRT 1.85 MW = 597 [1]: 0.09%; Strength [1]: 19.378 mg/mL; Total [1]: 0.54%; RRT 0.12 MW = 633 [2]: BRL (BRL means below reporting limit (meaning less than 0.05% of tigecycline peak)); RRT 0.23 MW = 572 [2]: BRL (BRL means below reporting limit (meaning less than 0.05% of tigecycline peak)); RRT 0.50 MW = 601 [2]: BRL (BRL means below reporting limit (meaning less than 0.05% of tigecycline peak)); RRT 0.55 MW = 583 [2]: BRL (BRL means below reporting limit (meaning less than 0.05% of tigecycline peak)); RRT 0.58 [2]: 0.07%; RRT 0.64 9-Amino [2]: BRL (BRL means below reporting limit (meaning less than 0.05% of tigecycline peak)); RRT 0.74 Epimer [2]: 0.22%; RRT 0.76 [2]: BRL (BRL means below reporting limit (meaning less than 0.05% of tigecycline peak)); RRT 0.78 MW = 557 [2]: BRL (BRL means below reporting limit (meaning less than 0.05% of tigecycline peak)); RRT 1.12 [2]: BRL (BRL means below reporting limit (meaning less than 0.05% of tigecycline peak)); RRT 1.45 [2]: 0.08%; RRT 1.58 [2]: BRL (BRL means below reporting limit (meaning less than 0.05% of tigecycline peak)); RRT 1.64 Mino [2]: 0.08%; RRT 1.67 MW = 556 [2]: BRL (BRL means below reporting limit (meaning less than 0.05% of tigecycline peak)); RRT 1.85 MW = 597 [2]: 0.08%; Strength [2]: 19.275 mg/mL; Total [2]: 0.53%; RRT 0.12 MW = 633 [3]: BRL (BRL means below reporting limit (meaning less than 0.05% of tigecycline peak)); RRT 0.23 MW = 572 [3]: BRL (BRL means below reporting limit (meaning less than 0.05% of tigecycline peak)); RRT 0.50 MW = 601 [3]: BRL (BRL means below reporting limit (meaning less than 0.05% of tigecycline peak)); RRT 0.55 MW = 583 [3]: 0.07%; RRT 0.58 [3]: 0.06%; RRT 0.64 9-Amino [3]: BRL (BRL means below reporting limit (meaning less than 0.05% of tigecycline peak)); RRT 0.74 Epimer [3]: 0.31%; RRT 0.76 [3]: BRL (BRL means below reporting limit (meaning less than 0.05% of tigecycline peak)); RRT 0.78 MW = 557 [3]: BRL (BRL means below reporting limit (meaning less than 0.05% of tigecycline peak)); RRT 1.12 [3]: BRL (BRL means below reporting limit (meaning less than 0.05% of tigecycline peak)); RRT 1.45 [3]: 0.08%; RRT 1.58 [3]: 0.05%; RRT 1.64 Mino [3]: 0.11%; RRT 1.67 MW = 556 [3]: 0.07%; RRT 1.85 MW = 597 [3]: 0.08%; Strength [3]: 19.382 mg/mL; Total [3]: 0.83%; RRT 0.12 MW = 633 [4]: BRL (BRL means below reporting limit (meaning less than 0.05% of tigecycline peak)); RRT 0.23 MW = 572 [4]: BRL (BRL means below reporting limit (meaning less than 0.05% of tigecycline peak)); RRT 0.50 MW = 601 [4]: BRL (BRL means below reporting limit (meaning less than 0.05% of tigecycline peak)); RRT 0.55 MW = 583 [4]: BRL (BRL means below reporting limit (meaning less than 0.05% of tigecycline peak)); RRT 0.58 [4]: 0.06%; RRT 0.64 9-Amino [4]: BRL (BRL means below reporting limit (meaning less than 0.05% of tigecycline peak)); RRT 0.74 Epimer [4]: 0.31%; RRT 0.76 [4]: BRL (BRL means below reporting limit (meaning less than 0.05% of tigecycline peak)); RRT 0.78 MW = 557 [4]: BRL (BRL means below reporting limit (meaning less than 0.05% of tigecycline peak)); RRT 1.12 [4]: BRL (BRL means below reporting limit (meaning less than 0.05% of tigecycline peak)); RRT 1.45 [4]: 0.10%; RRT 1.58 [4]: 0.05%; RRT 1.64 Mino [4]: 0.13%; RRT 1.67 MW = 556 [4]: 0.07%; RRT 1.85 MW = 597 [4]: 0.11%; Strength [4]: 19.211 mg/mL; Total [4]: 0.82%; RRT 0.74 Epimer [5]: 0.21%; RRT 1.85 MW = 597 [5]: 0.08%; Strength [5]: 18.777 mg/mL; RRT 0.58 [6]: 0.09%; RRT 0.74 Epimer [6]: 0.23%; Strength [6]: 18.971 mg/mL; Total [6]: 0.53%; RRT 1.45 [7]: 0.09%; RRT 1.64 Mino [7]: 0.06%; RRT 1.85 MW = 597 [7]: 0.09%; Strength [7]: 19.051 mg/mL; RRT 0.58 [8]: 0.07%; RRT 0.74 Epimer [8]: 0.24%; RRT 1.45 [8]: 0.07%; RRT 1.64 Mino [8]: 0.08%; RRT 1.85 MW = 597 [8]: 0.10%; Strength [8]: 18.722 mg/mL; Total [8]: 0.55%; RRT 0.74 Epimer [9]: 0.25%; RRT 1.64 Mino [9]: 0.11%; RRT 1.85 MW = 597 [9]: 0.06%; Strength [9]: 19.238 mg/mL; Total [9]: 0.56%; effect of pH on the degradation of tigecycline bulk solution (range of pH (7.7-8.2) studied): did not have any significant effect; degradation (when oxygen is removed from the process and the temperature is controlled): very little degradation is seen
